# Measured values: patent publication US6358885B1, “Substituted phenylheterocyclic herbicides” (Mississippi State University, priority 1992, dated 2002)
# How the values were obtained:
# [1] = system: lambsquarters; test: Test C preemergence/postemergence greenhouse plant response rating 0 to 100; format: in vivo, Chenopodium album; details: POSTEMERGENCE; for Plant response rating Lambsquarters: 0 to 100 scale
# Procedure, shortened: (§1)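 Compounds in non-phytotoxic solvent went onto sandy loam before emergence (seeded one day earlier) or onto plants at the one-to-four leaf stage. Duck salad was treated via flood water (~2.5 cm, maintained) over silt loam.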
# [2] = system: rape; test: Test B preemergence/postemergence greenhouse plant response rating 0 to 10; format: in vivo, Brassica napus; details: 0 to 10 scale
# Procedure, shortened: (§2)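 Planted seeds are treated preemergence with compound dissolved in a non-phytotoxic solvent, while postemergence applications go onto plants of two to eighteen cm. Plants stay in the greenhouse twelve to sixteen days and are then rated visually relative to controls.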
# [3] = system: duck salad; test: Test C flood test plant response rating 0 to 100; format: in vivo, Heteranthera limosa; details: for Plant response rating (0 to 100), Duck salad: under POSTEMERGENCE head (flood test species); for Plant response rating Duck salad: flood test species listed under POSTEMERGENCE, 0 to 100 scale
# Procedure, shortened: as §1
# [4] = system: bedstraw; test: Test B preemergence/postemergence greenhouse plant response rating 0 to 10; format: in vivo, Galium aparine; details: 0 to 10 scale
# Procedure, shortened: as §2
# [5] = system: giant foxtail; test: as above; format: in vivo, Setaria faberii; details: 0 to 10 scale
# Procedure, shortened: as §2
# [6] = system: crabgrass; test: as above; format: in vivo, Digitaria spp.; details: 0 to 10 scale
# Procedure, shortened: as §2
# [7] = system: cheatgrass; test: as above; format: in vivo, Bromus secalinus; details: 0 to 10 scale
# Procedure, shortened: as §2
# [8] = system: morningglory; test: as above; format: in vivo, Ipomoea hederacea; details: 0 to 10 scale
# Procedure, shortened: as §2
# [9] = system: chickweed; test: Test C preemergence/postemergence greenhouse plant response rating 0 to 100; format: in vivo, Stellaria media; details: POSTEMERGENCE; for Plant response rating, Chickweed: 0 to 100 scale
# Procedure, shortened: as §1
# [10] = system: umbrella sedge; test: Test C flood test plant response rating 0 to 100; format: in vivo, Cyperus difformis; details: for Plant response rating (0 to 100), Umbrella sedge: under POSTEMERGENCE head (flood test species); for Plant response rating Umbrella sedge: flood test species listed under POSTEMERGENCE, 0 to 100 scale
# Procedure, shortened: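 Compounds in non-phytotoxic solvent applied preemergence to sandy loam one day after planting, postemergence at the 1–4 leaf stage, or to ~2.5 cm floodwater over silt loam.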
# [11] = system: barley; test: Test C preemergence/postemergence greenhouse plant response rating 0 to 100; format: in vivo, Hordeum vulgare; details: POSTEMERGENCE; for Plant response rating Barley Igri: 0 to 100 scale
# Procedure, shortened: as §1
# [12] = system: cocklebur; test: Test B preemergence/postemergence greenhouse plant response rating 0 to 10; format: in vivo, Xanthium pensylvanicum; details: 0 to 10 scale
# Procedure, shortened: as §2
# [13] = system: cotton; test: as above; format: in vivo, Gossypium hirsutum; details: 0 to 10 scale
# Procedure, shortened: as §2
# [14] = system: velvetleaf; test: Test C preemergence/postemergence greenhouse plant response rating 0 to 100; format: in vivo, Abutilon theophrasti; details: POSTEMERGENCE; for Plant response rating, Velvetleaf: 0 to 100 scale
# Procedure, shortened: as §1
# [15] = system: giant foxtail; test: as above; format: in vivo, Setaria faberii; details: POSTEMERGENCE; for Plant response rating, Giant foxtail: 0 to 100 scale
# Procedure, shortened: as §1
# [16] = system: cotton; test: as above; format: in vivo, Gossypium hirsutum; details: POSTEMERGENCE; for Plant response rating, Cotton: 0 to 100 scale
# Procedure, shortened: as §1
# [17] = system: soybean; test: as above; format: in vivo, Glycine max; details: POSTEMERGENCE; for Plant response rating, Soybean: 0 to 100 scale
# Procedure, shortened: as §1
# [18] = system: pigweed; test: as above; format: in vivo, Amaranthusretroflexus; details: POSTEMERGENCE; for Plant response rating Pigweed: 0 to 100 scale
# Procedure, shortened: as §1
structure (smiles),measurement,setting,value
CC(C)OC(=O)COc1cc(-c2nn3c(c2Cl)CCCC3)c(F)cc1Cl [Compound 39],Plant response rating Lambsquarters,[1]; 62 g/ha,100
same,Plant response rating Lambsquarters,[1]; 125 g/ha,100
same,"Plant response rating (0 to 100), Lambsquarters",[1]; Rate 16 g/ha,70
same,"Plant response rating (0 to 100), Lambsquarters",[1]; Rate 31 g/ha,100
same,"Plant response rating, Rape","[2]; POSTEMERGENCE, Rate 50 g/ha",5
same,"Plant response rating, Rape","[2]; PREEMERGENCE, Rate 50 g/ha",8
same,"Plant response rating, Rape","[2]; Rate 200 g/ha, POSTEMERGENCE",10
same,"Plant response rating, Rape","[2]; Rate 200 g/ha, PREEMERGENCE",10
same,"Plant response rating (0 to 100), Duck salad",[3]; Rate 16 g/ha,0
same,"Plant response rating (0 to 100), Duck salad",[3]; Rate 31 g/ha,0
same,Plant response rating Duck salad,[3]; 62 g/ha,0
same,Plant response rating Duck salad,[3]; 125 g/ha,0
same,"Plant response rating, Bedstraw","[4]; POSTEMERGENCE, Rate 200 g/ha",10
same,"Plant response rating, Bedstraw","[4]; PREEMERGENCE, Rate 50 g/ha",4
same,"Plant response rating, Bedstraw","[4]; Rate 200 g/ha, PREEMERGENCE",9
same,"Plant response rating, Giant foxtail","[5]; POSTEMERGENCE, Rate 50 g/ha",4
same,"Plant response rating, Giant foxtail","[5]; PREEMERGENCE, Rate 50 g/ha",5
same,"Plant response rating, Giant foxtail","[5]; Rate 200 g/ha, POSTEMERGENCE",5
same,"Plant response rating, Giant foxtail","[5]; Rate 200 g/ha, PREEMERGENCE",2
same,"Plant response rating, Crabgrass","[6]; POSTEMERGENCE, Rate 50 g/ha",5
same,"Plant response rating, Crabgrass","[6]; POSTEMERGENCE, Rate 200 g/ha",4
same,"Plant response rating, Crabgrass","[6]; PREEMERGENCE, Rate 50 g/ha",0
same,"Plant response rating, Crabgrass","[6]; Rate 200 g/ha, PREEMERGENCE",2
same,"Plant response rating, Cheatgrass","[7]; POSTEMERGENCE, Rate 50 g/ha",4
same,"Plant response rating, Cheatgrass","[7]; POSTEMERGENCE, Rate 200 g/ha",4
same,"Plant response rating, Cheatgrass","[7]; PREEMERGENCE, Rate 50 g/ha",0
same,"Plant response rating, Cheatgrass","[7]; Rate 200 g/ha, PREEMERGENCE",2
same,"Plant response rating, Morningglory","[8]; POSTEMERGENCE, Rate 50 g/ha",8
same,"Plant response rating, Morningglory","[8]; PREEMERGENCE, Rate 50 g/ha",0
same,"Plant response rating, Morningglory","[8]; Rate 200 g/ha, POSTEMERGENCE",9
same,"Plant response rating, Morningglory","[8]; Rate 200 g/ha, PREEMERGENCE",2
same,"Plant response rating, Chickweed",[9]; 62 g/ha,40
same,"Plant response rating, Chickweed",[9]; 125 g/ha,70
same,"Plant response rating (0 to 100), Chickweed",[9]; Rate 16 g/ha,20
same,"Plant response rating (0 to 100), Chickweed",[9]; Rate 31 g/ha,30
same,"Plant response rating (0 to 100), Umbrella sedge",[10]; Rate 16 g/ha,0
same,"Plant response rating (0 to 100), Umbrella sedge",[10]; Rate 31 g/ha,0
same,Plant response rating Umbrella sedge,[10]; 62 g/ha,60
same,Plant response rating Umbrella sedge,[10]; 125 g/ha,70
same,Plant response rating Barley Igri,[11]; 62 g/ha,30
same,Plant response rating Barley Igri,[11]; 125 g/ha,40
same,"Plant response rating (0 to 100), Barley Igri",[11]; Rate 16 g/ha,20
same,"Plant response rating (0 to 100), Barley Igri",[11]; Rate 31 g/ha,30
same,"Plant response rating, Cocklebur","[12]; POSTEMERGENCE, Rate 50 g/ha",10
same,"Plant response rating, Cocklebur","[12]; POSTEMERGENCE, Rate 200 g/ha",10
same,"Plant response rating, Cocklebur","[12]; PREEMERGENCE, Rate 50 g/ha",0
same,"Plant response rating, Cocklebur","[12]; Rate 200 g/ha, PREEMERGENCE",1
same,"Plant response rating, Cotton","[13]; POSTEMERGENCE, Rate 50 g/ha",10
same,"Plant response rating, Cotton","[13]; POSTEMERGENCE, Rate 200 g/ha",10
same,"Plant response rating, Cotton","[13]; PREEMERGENCE, Rate 50 g/ha",0
same,"Plant response rating, Cotton","[13]; Rate 200 g/ha, PREEMERGENCE",0
same,"Plant response rating, Velvetleaf",[14]; 62 g/ha,100
same,"Plant response rating, Velvetleaf",[14]; 125 g/ha,100
same,"Plant response rating (0 to 100), Velvetleaf",[14]; Rate 16 g/ha,100
same,"Plant response rating (0 to 100), Velvetleaf",[14]; Rate 31 g/ha,100
same,"Plant response rating, Giant foxtail",[15]; 62 g/ha,30
same,"Plant response rating, Giant foxtail",[15]; 125 g/ha,60
same,"Plant response rating (0 to 100), Giant foxtail",[15]; Rate 16 g/ha,10
same,"Plant response rating (0 to 100), Giant foxtail",[15]; Rate 31 g/ha,20
same,"Plant response rating, Cotton",[16]; 62 g/ha,100
same,"Plant response rating, Cotton",[16]; 125 g/ha,100
same,"Plant response rating (0 to 100), Cotton",[16]; Rate 16 g/ha,100
same,"Plant response rating (0 to 100), Cotton",[16]; Rate 31 g/ha,100
same,"Plant response rating, Soybean",[17]; 62 g/ha,60
same,"Plant response rating, Soybean",[17]; 125 g/ha,70
same,"Plant response rating (0 to 100), Soybean",[17]; Rate 16 g/ha,30
same,"Plant response rating (0 to 100), Soybean",[17]; Rate 31 g/ha,50
same,Plant response rating Pigweed,[18]; 62 g/ha,100
same,Plant response rating Pigweed,[18]; 125 g/ha,100
same,"Plant response rating (0 to 100), Pigweed",[18]; Rate 16 g/ha,90
same,"Plant response rating (0 to 100), Pigweed",[18]; Rate 31 g/ha,100
